Laboratory results from patent US11958869B2, “Ruthenium arene Schiff-base complexes and uses thereof” (CITY UNIVERSITY OF HONG KONG, priority 2021, dated 2024).
Like-named read-outs stand apart in the source and are kept apart here.

Experiments:
Type in all cases: cell-based
MDA-MB-231 mammospheres [1] = assay: Viability of MDA-MB-231 mammospheres, Alamar Blue assay (Table 1); settings: for IC50: read-out: IC50 (μM), growth of MDA-MB-231 mammospheres
MCF-7 = assay: cells; settings: for IC50: read-out: IC50 (μM) MCF-7 72 h
Experimental: (§1) Cells were seeded in 96-well plates and maintained for 14-16 hours, then were treated with dimethylsulfoxide (DMSO) or test compound at various concentrations (i.e., 0.312, 1.25, 5, 20 μM) for 72 hrs. The cells were then washed with phosphate buffer saline (PBS) twice, added a medium containing 3-(4,5-dimethylthiazol-2-yl)-2,5-diphenyltetrazolium bromide (MTT) at a final concentration of 0.5 mg/mL, and incubated for 4 hr at 37° C. in a humidified incubator containing 5% CO2 in air. Cells having functional succinate dehydrogenase of mitochondria would convert MTT to formazan. Then, the medium was replaced with 100 μL of DMSO for 30 min at room temperature, and the 96-well plate was read by an ELISA reader at 550 nm to get the absorbance density values. The IC50 values of death cell lines were calculated accordingly.
(§2) The Ru^TEN complexes of Example 1 were evaluated for their anti-proliferative properties in two breast cancer cell lines, namely, MCF-7 and MDA-MB-231 cells via MTT assay. […] MCF-7 is a chemotherapy-responsive breast cancer cell line of luminal subtype with high expression of estrogen receptor (ER), whereas MDA-MB-231 is a triple negative breast cancer (TNBC) or basal-like breast cancer cell ine. TNBC is defined as highly invasive cancer that lacks expression of ER, progesterone receptor (PR) and Her-2; it has one of the worst outcomes among all subtypes of breast cancers. The aggressive nature of TNBC may be related to the presence of breast cancer stem cells within the tumor; therefore, MDA-MB-231 cells are often used as a model of mammary cancer stem cells.
(§3) The cytotoxicity of Ru^TEN complexes of Example 1 was compared to that of cisplatin or oxaliplatin, which were known to induce their anticancer effects by the mode of action different from ER stress. Three CSC-selective organic compounds, salinomycin, etoposide and abamectin, were also used for comparison. Briefly, MCF-7 and MDA-MB-231 cells were respectively treated with increasing concentrations of compounds of interest for 24 or 72 hrs and then the cell viability was measured.

MDA-MB-231 = assay: Anti-proliferative activity (MTT assay), MDA-MB-231
Experimental: as §1, §2, §3

MDA-MB-231 mammospheres [2] = assay: Cytotoxicity in MDA-MB-231 mammospheres (Table 2); settings: read-out: IC50 (μM) MDA-MB-231 mammospheres 72 h
MCF-7 mammospheres = assay: Mammosphere formation assay, MCF-7; settings: for Number of MCF-7 mammospheres / Size (μm) of MCF-7 mammospheres: primary mammospheres grown 96 hr, incubated with compound 72 hrs, >50 μm analyzed; for decrease in number of MCF-7 mammospheres / decrease in size of MCF-7 mammospheres: versus control
Experimental: (§4) Since the breast cancer stem cells formed a mass of colonies in the form of floating spheres without attaching to a surface of a plate, the size and number of the masses were observed by a mammosphere formation assay to determine a cancer-stem-cell-specific effect.
(§5) Single-cell suspension was cultured at a density of 1,000 to 15,000 cells/well using a MammoCult™ Human Medium kit (Stemcell Technologies Inc Vancouver, CA), and the spherical cells were counted and observed under a microscope.
(§6) The mammosphere assay is based on the concept that when cells proliferate in three-dimensional spheroid structures, only cancer cells with stem-like characteristics are able to evade anoikis.

MDA-MB-231 mammospheres [3] = assay: Mammosphere formation assay, MDA-MB-231 primary; settings: for Number of MDA-MB-231 mammospheres / Size (μm) of MDA-MB-231 mammospheres: primary mammospheres grown 96 hr, incubated with compound 72 hrs, >50 μm analyzed; for decrease in number of MDA-MB-231 mammospheres / decrease in size of MDA-MB-231 mammospheres: versus control
Experimental: as §4, §5, §6

[4] = system: MDA-MB-231 secondary mammospheres; assay: Secondary mammosphere formation (self-renewal), MDA-MB-231; settings: for Number of MDA-MB-231 secondary mammospheres / Size (μm) of MDA-MB-231 secondary mammospheres: from drug-treated primary mammospheres, grown in drug-free conditions for 7 days; for propensity to form secondary mammospheres: single cells from drug-treated primary mammospheres, 7 days drug-free, FIG. 2
Experimental: To this purpose, drug-treated primary MDA-MB-231 mammospheres were dissociated into single cell suspensions and incubated for 7 days in ultralow attachment drug-free conditions.

[5] = system: ALDHbright subpopulation of MDA-MB-231 cells; assay: ALDEFLUOR assay (ALDH activity); settings: versus control, FIG. 3
Experimental: The cells were stained with […] bodipy-aminoacetaldehyde (BAAA), and then cultured at 37° C. for 45 minutes. An ALDH1 inhibitor, diethyl aminobenzaldehyde (DEAB), was used as the negative control. The stained cells were assayed using BD FACS Aria III. In this case, the positive fluorescent ALDH1-expressed cells (ALDH+) were detected in a green fluorescent channel (520 to 540 nm).
While CD44+/CD24−/low phenotype has often been associated with breast CSC/progenitor cell features, yet there is no correlation between the presence of CD44+/CD24−/low cells and clinical outcome and formation of distant metastases. It is the presence of aldehyde dehydrogenase (ALDH) bright cells which separates highly tumorigenic CD44+/CD24−/low/ALDHbright population from non-tumorigenic cells. Unlike CD44+/CD24−/low, ALDH is a predictor of metastasis and is associated with a poor clinical outcome. The main role of ALDH enzymes is the detoxification of aldehydes generated in various metabolic processes into carboxylic acids. However, several ALDH isoforms are involved in retinoic acid signaling and this particular function was linked to the “stemness” of CSCs. The functional activity of ALDHs can be accurately determined by ascertaining the cellular conversion of […] (BAAA) into a fluorescent molecule BODIPY-aminoacetate (BAA). ATP-binding cassette (ABC)-transporter inhibitors in the assay buffer prevent the efflux of BAA from the cells, resulting in the accumulation of BAA in cytoplasm.

MDA-MB-231 mammospheres [6] = assay: Invasion / dispersion of spheroids into 3D collagen; settings: cells incubated with compound 72 hr, FIG. 4
Text: CSCs are associated with highly invasive phenotype and it is believed that this subset of cancer cells gives rise to metastases. In order to monitor the dissemination of MCF-7 and MDA-MB-231 breast cancer spheroids, the spheroids were embedded into three-dimensional (3D) collagen scaffold using Aim Biotech 3D cell culture chips. Collagen with spheroids was introduced into the central region of the microfluidic system where it polymerized via thermal cross-linking. Cell culture media was introduced into media channels forcing spheroids to move through collagen towards the media.
Thus, whether Ru^TEN complexes and salinomycin affected the invasive properties of MDA-MB-231 spheroids was then investigated. To this purpose, MDA-MB-231 monolayer cells were incubated with compounds of interest (e.g., Ru^TEN complexes of Examplel or salinomycin) for 72 hr, then the delamination was allowed to proceed for over 28 hr. Results are depicted in FIG. 4.

[7] = 24 h, MTT, read-out: IC50 (μM) MDA-MB-231 24 h
[8] = 72 h, MTT, read-out: IC50 (μM) MDA-MB-231 72 h

| Molecule | viability of MDA-MB-231 mammospheres (MDA-MB-231 mammospheres [1]) | IC50 (MCF-7; 72 h, MTT) [µM] | IC50 (MDA-MB-231; [7]) [µM] | IC50 (MDA-MB-231; [8]) [µM] | IC50 (MDA-MB-231 mammospheres [2]; 72 h) [µM] | inhibition of mammosphere growth, MCF-7 (MCF-7 mammospheres) | Number of MCF-7 mammospheres (MCF-7 mammospheres) | Size (μm) of MCF-7 mammospheres (MCF-7 mammospheres) [μm] | inhibition of mammosphere growth, MDA-MB-231 (MDA-MB-231 mammospheres [3]) | Number of MDA-MB-231 mammospheres (MDA-MB-231 mammospheres [3]) | Size (μm) of MDA-MB-231 mammospheres (MDA-MB-231 mammospheres [3]) [μm] | Number of MDA-MB-231 secondary mammospheres [4] | Size (μm) of MDA-MB-231 secondary mammospheres [4] [μm] | reduction of ALDHbright sub-population [5] | IC50 (MDA-MB-231 mammospheres [1]) [µM] | propensity to form secondary mammospheres [4] | dispersion of cells into collagen after 4 hr (MDA-MB-231 mammospheres [6]) | dispersion of cells into collagen after 28 hr / entire incubation period (MDA-MB-231 mammospheres [6]) | decrease in number of MCF-7 mammospheres (MCF-7 mammospheres) | decrease in size of MCF-7 mammospheres (MCF-7 mammospheres) | also measured |
| --- | --- | --- | --- | --- | --- | --- | --- | --- | --- | --- | --- | --- | --- | --- | --- | --- | --- | --- | --- | --- | --- |
| O=C1[O][Pt]2([NH][C@@H]3CCCC[C@H]3[NH]2)[O]C1=O [Oxaliplatin, oxaliplatin] | did not affect the viability | 1.1 ± 0.2 | 348 ± 78 | 4.6 ± 1 | > 40 | did not show any potency in inhibiting mammosphere growth | 274 ± 93 | 107 ± 17 | did not show any potency in inhibiting mammosphere growth | 144 ± 50 | 99 ± 27 | 122 ± 10 | 86 ± 14 | – | – | – | – | – | – | – | – |
| N.N.[Cl][Pt][Cl] [Cisplatin, cisplatin] | did not affect the viability | 22 ± 7 | 268 ± 78 | 27 ± 8 | > 40 | did not show any potency in inhibiting mammosphere growth | 273 ± 108 | 106 ± 14 | did not show any potency in inhibiting mammosphere growth | 136 ± 44 | 95 ± 25 | 67 ± 20 | 103 ± 30 | did not affect ALDHbright cells | – | – | – | – | – | – | antiproliferative activity, MCF-7 (MCF-7; MTT): only moderately active; antiproliferative activity, MDA-MB-231 (MDA-MB-231; MTT): only moderately active |
| COc1ccc([N+]2=Cc3ccc4ccccc4[n+]3[Ru-]2[Cl])cc1.Cc1c(C)c(C)c(C)c(C)c1C.[Cl-] [Ru^TEN2, [(η6-hexamethylbenzene)RuCl(4-methoxv-N-(2-quinolinyl-methylene)-aniline)]Cl] | – | 4.1 ± 0.9 | 10 ± 1 | 2.2 ± 0.3 | > 40 | – | 255 ± 175 | 114 ± 24 | did not inhibit mammosphere growth | 141 ± 41 | 98 ± 18 | 186 ± 45 | 85 ± 15 | – | > 20 | only slight changes in size and number of mammospheres | did not exhibit significant dispersion | only slight dispersion | – | – | – |
| abamectin | – | 7 ± 2.2 | 18 ± 6 | 6.4 ± 2.3 | 4 ± 0.5 | – | 147 ± 33 | 77 ± 13 | – | 4 ± 1 | 76 ± 8 | – | – | – | – | – | – | – | – | – | – |
| COc1cc([C@@H]2c3cc4c(cc3[C@@H](O[C@@H]3O[C@@H]5CO[C@@H](C)O[C@H]5[C@H](O)[C@H]3O)[C@H]3COC(=O)[C@H]23)OCO4)cc(OC)c1O [Etoposide, etoposide] | – | – | – | – | – | – | 237 ± 11 | 135 ± 6 | – | 107 ± 37 | 123 ± 20 | 73 ± 22 | 63 ± 4 | 52% | – | – | – | – | 10-15% | did not affect the size | IC50 (MCF-7; Homo sapiens, MCF7, 72 h): 0.79 ± 0.21 µM; IC50 (MDA-MB-231; Homo sapiens, MDA-MB-231, 24 h, read-out: IC50 (μM) MDA-MB-231 24 h): > 1000 µM; IC50 (MDA-MB-231; Homo sapiens, MDA-MB-231, 72 h, read-out: IC50 (μM) MDA-MB-231 72 h): 6.4 ± 1.2 µM; IC50 (MDA-MB-231 mammospheres [2]; Homo sapiens, MDA-MB-231, 72 h): > 40 µM; decrease in number of MDA-MB-231 mammospheres (MDA-MB-231 mammospheres [3]): 10-15%; decrease in size of MDA-MB-231 mammospheres (MDA-MB-231 mammospheres [3]): did not affect the size |
| Cc1c(C)c(C)c(C)c(C)c1C.Clc1cccc([N+]2=Cc3ccc4ccccc4[n+]3[Ru-]2[Cl])c1.[Cl-] [Ru^TEN4, [(η6-Hexamethylbenzene)RuCl(3-chloro-N-(2-quinolinylmethylene)aniline)]Cl] | – | 2.5 ± 0.7 | 9.2 ± 1.3 | 1.4 ± 0.3 | 7.2 ± 1.8 | – | 236 ± 88 | 105 ± 18 | – | 118 ± 17 | 95 ± 37 | 91 ± 33 | 70 ± 6 | – | 11 | drastically reduced propensity to form secondary mammospheres | did not exhibit significant dispersion | only slight dispersion | 10% | 17% | decrease in number of MDA-MB-231 mammospheres (MDA-MB-231 mammospheres [3]): 17%; decrease in size of MDA-MB-231 mammospheres (MDA-MB-231 mammospheres [3]): 10% |
